Data reported in patent publication US20150050299A1, “METHODS FOR ENHANCING IMMUNE RESPONSE” (priority 2010, published 2015).
Where two headings read alike, the source gives them in different places.

Experiments:
iNOS protein translation [1] = details: read-out: IC50, iNOS protein translation; peritoneal macrophages; cited from earlier work
iNOS protein translation [2] = details: read-out: IC50, iNOS protein translation; RAW 264.7 cells; cited from earlier work
L1210 cells = details: i.p. 5 mg/kg for 9 days; cited from earlier work
4T1 breast cancer cells = details: mouse, in vivo; cited from earlier work
UVB-induced skin cancer = details: 1% in drinking water for 3 weeks before UVB; untreated control 38%; cited from earlier work
B16F1 cells = details: 0.5 to 2.0% oral; cited from earlier work
[3] = test system: squamous cell carcinomas (SCCs); type: in vivo; details: agent alone
Procedure: The combination therapy of polyamine biosynthesis/uptake inhibition was tested against the K6/ODC transgenic mouse murine squamous cell carcinoma (SCC) model recently described.^98 The K6/ODC model was developed to assess whether ODC overexpression was a contributing cause, or an effect of malignant transformation. […] While most skin tumorigenesis models yielded benign squamous papillomas as the predominant tumor type, when the K6/ODC transgene was expressed on the FVB/N strain background, the majority of tumors that developed were aggressive squamous cell carcinomas. These SCCs appeared as early as 5 weeks after treatment and in high multiplicities (up to four tumors per mouse), making this a very efficient model for SCC induction. Using this model, we were thus able to conclude that over-expression of ODC is a sufficient condition for tumor promotion in mouse skin.^99
We conducted an in vivo anti-tumor trial of DFMO combined with either the D-C16-acyl Lys-spm conjugate AMXT 1501 (FIG. 4) or the L-C16-alkyl AMXT 1569 analog (FIG. 5) in the K6/ODC SCC model.
The concentration of AMXT 1501 was 14 μg/ml, or an average daily dose of ˜50-65 μg (equivalent to ˜3 mg/kg/d). […] It is expected that great improvements in the oral bioavailability of AMXT 1501 would result from insightful drug formulation.

[4] = test system: UV-induced tumor challenges; details: splenocytes from UV-irradiated treated mice; without treatment 20 of 24; cited from earlier work
L1210 leukemia = details: cited from earlier work

## NCCCNCCCCNCCCN [spermine]
iNOS protein translation [1]
  IC50: 9 µM
iNOS protein translation [2]
  IC50: 9.2 µM

## NCCCNCCCCNC(=O)[C@H](O)NC(=O)C[C@@H](O)CCCCN=C(N)N [sperqualin]
L1210 cells
  survival: more than 60 days

## c1cc(CN2CCCNCCNCCCNCC2)ccc1CN1CCCNCCNCCCNCC1 [AMD3100, plerixafor]
4T1 breast cancer cells
  growth of transplanted 4T1 cells: significantly reduced

## NCCC[C@](N)(C(=O)O)C(F)F [DFMO, α-difluoromethylornithine]
UVB-induced skin cancer
  occurrence of skin cancer: 9%
B16F1 cells
  macrophage mediated cytolysis of B16F1 cells: two-fold augmented
[3]
  anti-tumor response to single agent: weak effect
[4]
  recipient mice in which tumors grew: 2 of 24

## CCNCCCNCCCCCCCNCCCNCC [BEPH, N,N′-bis[3-(ethylamino)-propyl]-1-7-heptane diamine]
L1210 leukemia; T-cell deficient nude mice
  outcome of L1210 leukemia: not curative
L1210 leukemia; at the doses used
  effect on tumor or spleen cell polyamine levels: no effect
L1210 leukemia; immunocompetent C57BL mice
  outcome of L1210 leukemia: cured
